This experiment has as its target TRKA (Homo sapiens (Human), UniProt P04629). As to the kind of experiment: Isolated TRK enzyme assay (HTRF KinEASE-TK), PV3144 TrkA enzyme assay. The experiment is classed as biochemical. As to conditions: arithmetic mean where more than one reading. In short, it runs like this:
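Kinase (recombinant His-TrkA cytoplasmic domain, ATP-preactivated 20 min) met compound 20 min, then biotinylated TK substrate (1 µM final) with Mg2+/DTT buffer; HTRF detection.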

TRKA, sequence (P04629 441-796): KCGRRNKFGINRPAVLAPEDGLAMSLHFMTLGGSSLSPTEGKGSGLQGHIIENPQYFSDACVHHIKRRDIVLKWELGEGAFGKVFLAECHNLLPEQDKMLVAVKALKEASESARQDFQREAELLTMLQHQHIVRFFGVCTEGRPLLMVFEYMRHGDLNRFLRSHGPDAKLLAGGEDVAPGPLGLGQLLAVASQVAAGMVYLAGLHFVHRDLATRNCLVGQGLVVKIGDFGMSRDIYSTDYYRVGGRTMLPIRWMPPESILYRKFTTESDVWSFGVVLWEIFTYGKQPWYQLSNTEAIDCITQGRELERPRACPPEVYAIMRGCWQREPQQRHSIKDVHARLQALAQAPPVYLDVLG

For the molecule `CC(C)n1cc(C(=O)c2cncc(NC(=O)Cn3cc(Cl)cn3)c2)c2cnccc21` [Example 127, 2-(4-chloro-1H-pyrazol-1-yl)-N-(5-{[1-(propan-2-yl)-1H-pyrrolo[3,2-c]pyridin-3-yl]carbonyl}pyridin-3-yl)acetamide], the IC50 is 41.8 nM. As for `Cc1cc(C(F)(F)F)nn1CC(=O)Nc1cncc(C(=O)c2cn(C(C)(C)CO)c3c(F)cncc23)c1` [Example 1, N-{5-[7-Fluoro-1-(2-hydroxy-1,1-dimethyl-ethyl)-1H-pyrrolo[3,2-c]pyridine-3-carbonyl]-pyridin-3-yl}-2-(5-methyl-3-trifluoromethyl-pyrazol-1-yl)-acetamide], the figure is 6.32 nM; as for `Cc1n[nH]c(CC(=O)Nc2cc(C(=O)c3cn(C(C)C)c4ccncc34)ccn2)n1` [Example 184, 2-(3-methyl-1H-1,2,4-triazol-5-yl)-N-(4-{[1-(propan-2-yl)-1H-pyrrolo[3,2-c]pyridin-3-yl]carbonyl}pyridin-2-yl)acetamide], 3180 nM; as for `Cc1nc(CC(=O)Nc2cncc(C(=O)c3cn(C(C)C)c4ccncc34)c2)c(C2CC2)o1` [Example 24, 2-(5-cyclopropyl-2-methyl-1,3-oxazol-4-yl)-N-(5-{[1-(propan-2-yl)-1H-pyrrolo[3,2-c]pyridin-3-yl]carbonyl}pyridin-3-yl)acetamide], 124 nM. Turning to `CC(C)n1cc(C(=O)c2cc(NC(=O)Cc3ccc(Cl)cc3)ccn2)c2cncc(F)c21` [Example 85, 2-(4-chlorophenyl)-N-(2-{[7-fluoro-1-(propan-2-yl)-1H-pyrrolo[3,2-c]pyridin-3-yl]carbonyl}pyridin-4-yl)acetamide], the IC50 is 23.3 nM.

The molecule `O=C(Cc1ccc(Cl)c(Cl)c1)Nc1cc(C(=O)c2cn(CCO)c3ccncc23)ccn1` [Example 144, 2-(3,4-dichlorophenyl)-N-(4-{[1-(2-hydroxyethyl)-1H-pyrrolo[3,2-c]pyridin-3-yl]carbonyl}pyridin-2-yl)] registered an IC50 of 22.2 nM. On to `CC(C)n1cc(C(=O)c2cncc(NC(=O)Cc3ccc(C#N)cn3)c2)c2cnccc21` [Example 139, 2-(5-cyanopyridin-2-yl)-N-(5-{[1-(propan-2-yl)-1H-pyrrolo[3,2-c]pyridin-3-yl]carbonyl}pyridin-3-yl)acetamide], for which inhibition was half-maximal at 100 nM (IC50). On to `CC(C)n1cc(C(=O)c2cncc(NC(=O)Cc3nc(C4CC4)oc3C3CC3)c2)c2cnccc21` [Example 20, 2-(2,5-dicyclopropyl-1,3-oxazol-4-yl)-N-(5-{[1-(propan-2-yl)-1H-pyrrolo[3,2-c]pyridin-3-yl]carbonyl}pyridin-3-yl)acetamide], for which half-maximal inhibition (IC50) required 31.7 nM. Molecule `CC(CO)n1cc(C(=O)c2cncc(NC(=O)Cn3ccc(C4CC4)n3)c2)c2cncc(F)c21` (single isomer, unassigned) [Example 215, 2-(3-cyclopropyl-1H-pyrazol-1-yl)-N-(5-{[7-fluoro-1-(1-hydroxypropan-2-yl)-1H-pyrrolo[3,2-c]pyridin-3-yl]carbonyl}pyridin-3-yl)acetamide] showed an IC50 of 62 nM. As for `CC(C)n1cc(C(=O)c2ccnc(NC(=O)Cc3cccc(Cl)c3)c2)c2cnccc21` [Example 96, 2-(3-chlorophenyl)-N-(4-{[1-(propan-2-yl)-1H-pyrrolo[3,2-c]pyridin-3-yl]carbonyl}pyridin-2-yl)acetamide], the figure is 13.8 nM; as for `CC(C)n1cc(C(=O)c2cncc(NC(=O)Cn3cc(C(F)(F)F)cn3)c2)c2cncc(F)c21` [Example 31, N-(5-{[7-fluoro-1-(propan-2-yl)-1H-pyrrolo[3,2-c]pyridin-3-yl]carbonyl}pyridin-3-yl)-2[4-(trifluoromethyl)-1H-pyrazol-1-yl]acetamide], 9.66 nM; as for `CC(C)(CO)n1cc(C(=O)c2cncc(NC(=O)Cc3ccc(F)cn3)c2)c2cncc(F)c21` [Example 93, N-(5-{[7-fluoro-1-(1-hydroxy-2-methylpropan-2-yl)-1H-pyrrolo[3,2-c]pyridin-3-yl]carbonyl}pyridin-3-yl)-2-(5-fluoropyridin-2-yl)acetamide], 38.7 nM. For “N-(2-{[1-(1-hydroxypropan-2-yl)-1H-pyrrolo[3,2-c]pyridin-3-yl]carbonyl}pyridin-4-yl)-2-[4-(trifluoromethyl)phenyl]acetamide [Example 84]”, the IC50 was 141 nM. Take `O=C(Cn1nccn1)Nc1cc(C(=O)c2cn(CCO)c3ccncc23)ccn1` [Example 158, N-(4-{[1-(2-hydroxyethyl)-1H-pyrrolo[3,2-c]pyridin-3-yl]carbonyl}pyridin-2-yl)-2-(2H-1,2,3-triazol-2-yl)acetamide]: the IC50 was found to be 9800 nM. For `Cc1oc(C2CC2)nc1CC(=O)Nc1cc(C(=O)c2cn(C3COC3)c3ccncc23)ccn1` [Example 200, 2-(2-cyclopropyl-5-methyl-1,3-oxazol-4-yl)-N-(4-{[1-(oxetan-3-yl)-1H-pyrrolo[3,2-c]pyridin-3-yl]carbonyl}pyridin-2-yl)acetamide], the midpoint of inhibition, the IC50, lay at 174 nM.

Molecule `CC(CO)n1cc(C(=O)c2cncc(NC(=O)Cc3ccc(C#N)cc3)c2)c2cncc(F)c21` (single isomer, unassigned) [Example 213, 2-(4-cyanophenyl)-N-(5-{[7-fluoro-1-(1-hydroxypropan-2-yl)-1H-pyrrolo[3,2-c]pyridin-3-yl]carbonyl}pyridin-3-yl)acetamide] returned an IC50 of 252 nM. In the case of `CC(CO)n1cc(C(=O)c2cncc(NC(=O)Cc3ccc(F)cn3)c2)c2cncc(F)c21` (single isomer, unassigned) [Example 218, N-(5-{[7-fluoro-1-(1-hydroxypropan-2-yl)-1H-pyrrolo[3,2-c]pyridin-3-yl]carbonyl}pyridin-3-yl)-2-(5-fluoropyridin-2-yl)acetamide], the IC50 was 425 nM. As for `Cc1cc(C(F)(F)F)nn1CC(=O)Nc1ccnc(C(=O)c2cn(C(C)C)c3ccncc23)c1` [Example 28, 2-[5-methyl-3-(trifluoromethyl)-1H-pyrazol-1-yl]-N-(2-{[1-(propan-2-yl)-1H-pyrrolo[3,2-c]pyridin-3-yl]carbonyl}pyridin-4-yl)acetamide], the figure is 10.6 nM. The figure for `CC(CO)n1cc(C(=O)c2cncc(NC(=O)Cn3ccc(C(F)(F)F)n3)c2)c2cnccc21` (stereo not shown) [Example 75, N-(5-{[1-(1-hydroxypropan-2-yl)-1H-pyrrolo[3,2-c]pyridin-3-yl]carbonyl}pyridin-3-yl)-2-[3-(trifluoromethyl)-1H-pyrazol-1-yl]acetamide] is 44.9 nM; for `CC(C)n1ncc(CC(=O)Nc2cc(C(=O)c3cn(C(C)C)c4ccncc34)ccn2)c1C(F)(F)F` [Example 178, N-(4-{[1-(propan-2-yl)-1H-pyrrolo[3,2-c]pyridin-3-yl]carbonyl}pyridin-2-yl)-2-[1-(propan-2-yl)-5-(trifluoromethyl)-1H-pyrazol-4-yl]acetamide] it is 22 nM; for `CC(C)(CO)n1cc(C(=O)c2cncc(NC(=O)Cc3ccc(F)cn3)c2)c2cnccc21` [Example 16, 2-(5-fluoropyridin-2-yl)-N-(5-{[1-(1-hydroxy-2-methylpropan-2-yl)-1H-pyrrolo[3,2-c]pyridin-3-yl]carbonyl}pyridin-3-yl)acetamide] it is 18.2 nM. The figure for `CC(C)n1cc(C(=O)c2cncc(NC(=O)Cc3nc(C(C)(C)C)nn3C)c2)c2cnccc21` [Example 42, 2-(3-tert-butyl-1-methyl-1H-1,2,4-triazol-5-yl)-N-(5-{[1-(propan-2-yl)-1H-pyrrolo[3,2-c]pyridin-3-yl]carbonyl}pyridin-3-yl)acetamide] is 179 nM.

The term IC50 denotes the concentration at which inhibition is half-maximal. A lower IC50 goes with higher potency.

(Values after patent US9163021B2, “Pyrrolo[3,2-c]pyridine tropomyosin-related kinase inhibitors” (Pfizer Limited, priority 2012, dated 2015).)
